These compounds were tested on beta-TC6 cells (assay: Insulin HTRF assay (relative activity Ar) in beta-TC6 cells). Settings: Mus musculus, Beta-TC6, 4 h, insulin HTRF, supernatant of beta-TC6 cells, incubation with test compound at 37°C for 2, 3, 4h; read-out: Ar (relative activity).
Assay type: cell-based, mouse
Method in brief: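 beta-TC6 cells (15k/well, seeded 24 or 48 h) washed, then exposed to compound in induction buffer (0.5% DMSO final) for 2, 3 or 4 h at 37°C.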

SMILES	Emax [%]
Fc1ccc(Nc2cc3[nH]c(-c4cn[nH]c4)cc3cn2)cc1 [Compound 114, N-(4-fluorophenyl)-2-(1H-pyrazol-4-yl)-1H-pyrrolo[3,2-c]pyridin-6-amine]	50 to 100
c1ccc(Nc2cc3[nH]c(-c4cn[nH]c4)cc3cn2)nc1 [Compound 115, 2-(1H-pyrazol-4-yl)-N-(2-pyridyl)-1H-pyrrolo[3,2-c]pyridin-6-amine]	> 100
COc1cc(Nc2cc3[nH]c(-c4cn[nH]c4)cc3cn2)cc(C(F)(F)F)c1 [Compound 116, N-[3-methoxy-5-(trifluoromethyl)phenyl]-2-(1H-pyrazol-4-yl)-1H-pyrrolo[3,2-c]pyridin-6-amine]	0 to 30
CC(=O)Nc1cccc(Nc2cc3[nH]c(-c4cn[nH]c4)cc3cn2)c1 [Compound 117, N-[3-[[2-(1H-pyrazol-4-yl)-1H-pyrrolo[3,2-c]pyridin-6-yl]amino]phenyl]acetamide]	> 100
CC(=O)c1cccc(Nc2cc3[nH]c(-c4cn[nH]c4)cc3cn2)c1 [Compound 118, 1-[3-[[2-(1 H-pyrazol-4-yl)-1H-pyrrolo[3,2-c]pyridin-6-yl]amino]phenyl]ethanone]	> 100
Fc1cccc(Nc2cc3[nH]c(-c4cn[nH]c4)cc3cn2)c1 [Compound 119, N-(3-fluorophenyl)-2-(1H-pyrazol-4-yl)-1H-pyrrolo[3,2-c]pyridin-6-amine]	50 to 100
CS(=O)(=O)c1ccc(Nc2cc3[nH]c(-c4cn[nH]c4)cc3cn2)cc1 [Compound 120, N-(4-methylsulfonylphenyl)-2-(1H-pyrazol-4-yl)-1H-pyrrolo[3,2-c]pyridin-6-amine]	> 100
CC(=O)Nc1ccc(Nc2cc3[nH]c(-c4cnn(C)c4)cc3cn2)cc1 [Compound 121, N-[4-[[2-(1-methylpyrazol-4-yl)-1H-pyrrolo[3,2-c]pyridin-6-yl]amino]phenyl]acetamide]	> 100
Cn1cc(-c2cc3cnc(Nc4ccc5c(c4)OCCO5)cc3[nH]2)cn1 [Compound 122, N-(2,3-dihydro-1,4-benzodioxin-6-yl)-2-(1-methylpyrazol-4-yl)-1H-pyrrolo[3,2-c]pyridin-6-amine]	30 to 50
COc1ccc(Nc2cc3[nH]c(-c4cnn(C)c4)cc3cn2)cc1OC [Compound 123, N-(3,4-dimethoxyphenyl)-2-(1-methylpyrazol-4-yl)-1H-pyrrolo[3,2-c]pyridin-6-amine]	> 100
CC(=O)c1cccc(Nc2cc3[nH]c(-c4cnn(C)c4)cc3cn2)c1 [Compound 124, 1-[3-[[2-(1-methylpyrazol-4-yl)-1H-pyrrolo[3,2-c]pyridin-6-yl]amino]phenyl]ethanone]	> 100
COc1cc(Nc2cc3c(cn2)cc(-c2cnn(C)c2)n3C)cc(OC)c1OC [Compound 125, 1-methyl-2-(1-methylpyrazol-4-yl)-N-(3,4,5-trimethoxyphenyl)pyrrolo[3,2-c]pyridin-6-amine]	> 100
CC(=O)Nc1ccc(Nc2cc3c(cn2)cc(-c2cnn(C)c2)n3C)cc1 [Compound 126, N-[4-[[1-methyl-2-(1-methylpyrazol-4-yl)pyrrolo[3,2-c]pyridin-6-yl]amino]phenyl]acetamide]	50 to 100
COc1cccc(Nc2cc3c(cn2)cc(-c2cnn(C)c2)n3C)c1 [Compound 127, N-(3-methoxyphenyl)-1-methyl-2-(1-methylpyrazol-4-yl)pyrrolo[3,2-c]pyridin-6-amine]	50 to 100
Cn1cc(-c2cc3cnc(Nc4ccc5c(c4)OCCO5)cc3n2C)cn1 [Compound 128, N-(2,3-dihydro-1,4-benzodioxin-6-yl)-1-methyl-2-(1-methylpyrazol-4-yl)pyrrolo[3,2-c]pyridin-6-amine]	50 to 100
COc1ccc(Nc2cc3c(cn2)cc(-c2cnn(C)c2)n3C)cc1OC [Compound 129, N-(3,4-dimethoxyphenyl)-1-methyl-2-(1-methylpyrazol-4-yl)pyrrolo[3,2-c]pyridin-6-amine]	> 100
COc1ccc(Nc2cc3c(cn2)cc(-c2cnn(C)c2)n3C)cn1 [Compound 130, N-(6-methoxy-3-pyridyl)-1-methyl-2-(1-methylpyrazol-4-yl)pyrrolo[3,2-c]pyridin-6-amine]	> 100
Cn1cc(-c2cc3cnc(Nc4cccnc4)cc3n2C)cn1 [Compound 131, 1-methyl-2-(1-methylpyrazol-4-yl)-N-(3-pyridyl)pyrrolo[3,2-c]pyridin-6-amine]	> 100
Cn1cc(-c2cc3cnc(Nc4ccccc4)cc3n2C)cn1 [Compound 132, 1-methyl-2-(1-methylpyrazol-4-yl)-N-phenyl-pyrrolo[3,2-c]pyridin-6-amine]	50 to 100
CN1CCN(c2ccc(Nc3cc4c(cn3)cc(-c3cnn(C)c3)n4C)cc2)CC1 [Compound 133, 1-methyl-N-[4-(4-methylpiperazin-1-yl)phenyl]-2-(1-methylpyrazol-4-yl)pyrrolo[3,2-c]pyridin-6-amine]	50 to 100
CN(C)c1cccc(Nc2cc3c(cn2)cc(-c2cnn(C)c2)n3C)c1 [Compound 134, N1,N1-dimethyl-N3-[1-methyl-2-(1-methylpyrazol-4-yl)pyrrolo[3,2-c]pyridin-6-yl]benzene-1,3-diamine]	50 to 100

SMILES	Emax [%]
Cn1cc(-c2cc3cnc(Nc4ccncc4)cc3n2C)cn1 [Compound 135, 1-methyl-2-(1-methylpyrazol-4-yl)-N-(4-pyridyl)pyrrolo[3,2-c]pyridin-6-amine]	50 to 100
Cc1cccc(Nc2cc3c(cn2)cc(-c2cnn(C)c2)n3C)c1 [Compound 136, 1-methyl-2-(1-methylpyrazol-4-yl)-N-(m-tolyl)pyrrolo[3,2-c]pyridin-6-amine]	50 to 100
Cn1cc(-c2cc3cnc(Nc4ccc(F)cc4)cc3n2C)cn1 [Compound 138, N-(4-fluorophenyl)-1-methyl-2-(1-methylpyrazol-4-yl)pyrrolo[3,2-c]pyridin-6-amine]	50 to 100
Cn1cc(-c2cc3cnc(Nc4ccccn4)cc3n2C)cn1 [Compound 139, 1-methyl-2-(1-methylpyrazol-4-yl)-N-(2-pyridyl)pyrrolo[3,2-c]pyridin-6-amine]	50 to 100
CN(c1ccccc1)c1cc2c(cn1)cc(-c1cnn(C)c1)n2C [Compound 140, N,1-dimethyl-2-(1-methylpyrazol-4-yl)-N-phenyl-pyrrolo[3,2-c]pyridin-6-amine]	30 to 50
COC(=O)c1ccc(Nc2cc3c(cn2)cc(-c2cnn(C)c2)n3C)cc1 [Compound 141, methyl 4-[[1-methyl-2-(1-methylpyrazol-4-yl)pyrrolo[3,2-c]pyridin-6-yl]amino]benzoate]	50 to 100
Cn1cc(-c2cc3cnc(Nc4ccc(C#N)cc4)cc3n2C)cn1 [Compound 142, 4-[[1-methyl-2-(1-methylpyrazol-4-yl)pyrrolo[3,2-c]pyridin-6-yl]amino]benzonitrile]	50 to 100
Cn1cc(-c2cc3cnc(Nc4ccc5c(c4)OCO5)cc3n2C)cn1 [Compound 143, N-(1,3-benzodioxol-5-yl)-1-methyl-2-(1-methylpyrazol-4-yl)pyrrolo[3,2-c]pyridin-6-amine]	> 100
Cn1cc(-c2cc3cnc(Nc4cccc(O)c4)cc3n2C)cn1 [Compound 144, 3-[[1-methyl-2-(1-methylpyrazol-4-yl)pyrrolo[3,2-c]pyridin-6-yl]amino]phenol]	> 100
Cn1cc(-c2cc3cnc(N4CCOCC4)cc3n2C)cn1 [Compound 145, 4-[1-methyl-2-(1-methylpyrazol-4-yl)pyrrolo[3,2-c]pyridin-6-yl]morpholine]	> 100
Cn1cc(-c2cc3cnc(Nc4cccc(OC(F)(F)F)c4)cc3n2C)cn1 [Compound 146, 1-methyl-2-(1-methylpyrazol-4-yl)-N-[3-(trifluoromethoxy)phenyl]pyrrolo[3,2-c]pyridin-6-amine]	30 to 50
Cn1cc(-c2cc3cnc(Nc4ccncn4)cc3n2C)cn1 [Compound 147, 1-methyl-2-(1-methylpyrazol-4-yl)-N-pyrimidin-4-yl-pyrrolo[3,2-c]pyridin-6-amine]	50 to 100
CN(C)C(=O)c1ccc(Nc2cc3c(cn2)cc(-c2cnn(C)c2)n3C)cc1 [Compound 148, N,N-dimethyl-4-[[1-methyl-2-(1-methylpyrazol-4-yl)pyrrolo[3,2-c]pyridin-6-yl]amino]benzamide]	> 100
CC(=O)Nc1cccc(Nc2cc3c(cn2)cc(-c2cnn(C)c2)n3C)c1 [Compound 149, N-[3-[[1-methyl-2-(1-methylpyrazol-4-yl)pyrrolo[3,2-c]pyridin-6-yl]amino]phenyl]acetamide]	> 100
CC(=O)c1cccc(Nc2cc3c(cn2)cc(-c2cnn(C)c2)n3C)c1 [Compound 150, 1-[3-[[1-methyl-2-(1-methylpyrazol-4-yl)pyrrolo[3,2-c]pyridin-6-yl]amino]phenyl]ethanone]	50 to 100
Cn1cc(-c2cc3cnc(Nc4cccc(F)c4)cc3n2C)cn1 [Compound 151, N-(3-fluorophenyl)-1-methyl-2-(1-methylpyrazol-4-yl)pyrrolo[3,2-c]pyridin-6-amine]	50 to 100
Cn1cc(-c2cc3cnc(Nc4ccc(S(C)(=O)=O)cc4)cc3n2C)cn1 [Compound 152, 1-methyl-2-(1-methylpyrazol-4-yl)-N-(4-methylsulfonylphenyl)pyrrolo[3,2-c]pyridin-6-amine]	> 100
CSc1ccc(Nc2cc3c(cn2)cc(-c2cnn(C)c2)n3C)cc1 [Compound 153, 1-methyl-2-(1-methylpyrazol-4-yl)-N-(4-methylsulfanylphenyl)pyrrolo[3,2-c]pyridin-6-amine]	30 to 50
CN1CCN(c2cc3c(cn2)cc(-c2cnn(C)c2)n3Cc2ccccc2)CC1 [Compound 154, 1-benzyl-6-(4-methylpiperazin-1-yl)-2-(1-methylpyrazol-4-yl)pyrrolo[3,2-c]pyridine]	30 to 50
Cn1cc(-c2cc3cnc(N4CCOCC4)cc3n2Cc2ccccc2)cn1 [Compound 155, 4-[1-benzyl-2-(1-methylpyrazol-4-yl)pyrrolo[3,2-c]pyridin-6-yl]morpholine]	50 to 100

Reference: EP2818472A1, “Imidazo[4,5-c]pyridine and pyrrolo[3,2-c]pyridine compounds as G-protein-coupled receptor kinase 5 (GRK5) modulators” (Max-Planck-Gesellschaft zur Förderung der Wissenschaften …, priority 2013, dated 2014)
